Results as given in ChEMBL document CHEMBL5247656, “Discovery of a Potent, Cooperative, and Selective SOS1 PROTAC ZZ151 with In Vivo Antitumor Efficacy in KRAS-Mutant Cancers” (J Med Chem, 2023).
Active and inactive are the calls of the source. No cut-off for these calls is given here.

Columns and labels:
[1] = target: T1, von Hippel-Lindau disease tumor suppressor/Son of sevenless homolog 1 (Homo sapiens) (UniProt Q07889+P40337); assay: PROTAC activity at VHL/SOS1 in human NCI-H358 cells assessed as induction of SOS1 protein degradation at 1.0 uM incubated for 24 hrs by Immunoblot analysis relative to control; type: cell-based
T1 sequence (P40337 whole entry, looked up): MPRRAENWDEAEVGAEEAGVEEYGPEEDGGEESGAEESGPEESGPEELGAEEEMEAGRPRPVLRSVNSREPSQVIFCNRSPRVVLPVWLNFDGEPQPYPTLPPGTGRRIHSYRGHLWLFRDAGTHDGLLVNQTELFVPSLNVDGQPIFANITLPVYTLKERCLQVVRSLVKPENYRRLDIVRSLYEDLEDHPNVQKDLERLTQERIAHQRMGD
T1 sequence (Q07889 whole entry, looked up): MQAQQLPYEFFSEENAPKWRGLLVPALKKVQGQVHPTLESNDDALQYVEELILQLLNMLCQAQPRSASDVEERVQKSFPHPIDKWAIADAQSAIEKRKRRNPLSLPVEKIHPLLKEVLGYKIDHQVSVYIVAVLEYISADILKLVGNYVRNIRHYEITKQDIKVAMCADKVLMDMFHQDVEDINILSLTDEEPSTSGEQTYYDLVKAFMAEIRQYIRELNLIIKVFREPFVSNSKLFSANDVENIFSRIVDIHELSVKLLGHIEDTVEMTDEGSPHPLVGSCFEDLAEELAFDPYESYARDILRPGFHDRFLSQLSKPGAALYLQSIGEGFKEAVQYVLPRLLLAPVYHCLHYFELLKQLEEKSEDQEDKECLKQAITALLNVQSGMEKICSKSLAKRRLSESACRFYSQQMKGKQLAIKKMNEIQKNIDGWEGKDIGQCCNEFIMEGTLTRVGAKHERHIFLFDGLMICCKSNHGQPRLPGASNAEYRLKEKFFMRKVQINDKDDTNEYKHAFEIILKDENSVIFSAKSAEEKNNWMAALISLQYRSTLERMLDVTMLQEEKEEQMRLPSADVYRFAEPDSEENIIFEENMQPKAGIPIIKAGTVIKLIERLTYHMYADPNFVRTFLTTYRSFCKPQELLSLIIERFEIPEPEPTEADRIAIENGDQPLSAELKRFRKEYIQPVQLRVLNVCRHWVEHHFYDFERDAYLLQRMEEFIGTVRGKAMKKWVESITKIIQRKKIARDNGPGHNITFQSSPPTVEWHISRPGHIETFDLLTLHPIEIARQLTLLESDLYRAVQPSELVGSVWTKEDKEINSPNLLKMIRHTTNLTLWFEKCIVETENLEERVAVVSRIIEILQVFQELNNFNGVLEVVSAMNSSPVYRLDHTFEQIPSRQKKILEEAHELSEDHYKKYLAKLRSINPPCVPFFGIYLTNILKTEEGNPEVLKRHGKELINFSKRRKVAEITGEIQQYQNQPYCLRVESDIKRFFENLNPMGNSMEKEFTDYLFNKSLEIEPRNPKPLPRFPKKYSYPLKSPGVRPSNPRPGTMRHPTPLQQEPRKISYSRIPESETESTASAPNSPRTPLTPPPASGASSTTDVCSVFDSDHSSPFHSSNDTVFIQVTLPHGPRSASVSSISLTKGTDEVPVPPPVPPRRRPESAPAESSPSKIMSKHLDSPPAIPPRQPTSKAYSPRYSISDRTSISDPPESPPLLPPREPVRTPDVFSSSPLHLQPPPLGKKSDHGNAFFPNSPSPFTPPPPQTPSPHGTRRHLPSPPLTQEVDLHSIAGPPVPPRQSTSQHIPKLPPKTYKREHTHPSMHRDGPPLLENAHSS

MIA PaCa-2 = assay: Antiproliferative activity against human MIA PaCa-2 cells harboring KRAS G12C mutant assessed as inhibition of cell proliferation incubated for 7 days by CellTiterGlo-3D proliferation assay; type: functional, cell-based; conditions: MIA PaCa-2, 168 h
ASPC1 = assay: Antitumor activity against human ASPC1 cells harboring KRAS G12D mutant xenografted in BALB/c nude mouse assessed as tumor growth inhibition at 10 mg/kg, ip administered once daily for 3 weeks relative to control; type: functional; conditions: ASPC1, 504 h, read-out: TGI
[2] = target: T1, von Hippel-Lindau disease tumor suppressor/Son of sevenless homolog 1 (Homo sapiens); assay: PROTAC activity at VHL/SOS1 in human UMUC3 cells harboring KRAS G12C mutant assessed as induction of SOS1 degradation by measuring maximal efficacy at 1 to 2000 nM incubated for 24 hrs by Immunoblot analysis relative to control; type: cell-based; conditions: dose 1-2000 nM
[3] = target: T1, von Hippel-Lindau disease tumor suppressor/Son of sevenless homolog 1 (Homo sapiens); assay: PROTAC activity at VHL/SOS1 in human NCI-H460 cells harboring KRAS Q61H mutant assessed as induction of SOS1 degradation by measuring maximal efficacy at 1 to 2000 nM incubated for 24 hrs by Immunoblot analysis relative to control; type: cell-based; conditions: dose 1-2000 nM
[4] = target: von Hippel-Lindau disease tumor suppressor/Son of sevenless homolog 1 (Homo sapiens, UniProt P40337+Q07889, Q61H); assay: PROTAC activity at VHL/SOS1 in human NCI-H460 cells harboring KRAS Q61H mutant assessed as induction of SOS1 degradation incubated for 24 hrs by Immunoblot analysis; type: cell-based
[5] = target: T1, von Hippel-Lindau disease tumor suppressor/Son of sevenless homolog 1 (Homo sapiens); assay: In vivo PROTAC activity at VHL/SOS1 in human ASPC1 cells harboring KRAS G12D mutant xenografted BALB/c nude mouse assessed as decrease in phosphorylated ERK expression at 10 to 20 mg/kg, ip administered once daily for 3 weeks by Immunoblot analysis; type: functional, organism-based; conditions: dose 10-20 mg/kg
[6] = target: T1, von Hippel-Lindau disease tumor suppressor/Son of sevenless homolog 1 (Homo sapiens); assay: PROTAC activity at VHL/SOS1 in human ASPC1 cells harboring KRAS G12D mutant assessed as induction of SOS1 degradation at 1 uM preincubated with (R)-1-(4-(4-((1-(3-amino-5-(trifluoromethyl)phenyl)ethyl)amino)-7-methoxy-2-methylquinazolin-6-yl)piperidin-1-yl)ethanone for 4 hrs followed by compound treatment and measured after 24 hrs by immunoblot analysis; type: cell-based
[7] = target: T1, von Hippel-Lindau disease tumor suppressor/Son of sevenless homolog 1 (Homo sapiens); assay: PROTAC activity at VHL/SOS1 in human CAL-62 cells harboring KRAS G12R mutant assessed as induction of SOS1 degradation by measuring maximal efficacy at 1 to 2000 nM incubated for 24 hrs by Immunoblot analysis relative to control; type: cell-based; conditions: dose 1-2000 nM
CAL-62 = assay: Antiproliferative activity against human CAL-62 cells harboring KRAS G12R mutant assessed as inhibition of cell proliferation incubated for 7 days by CellTiterGlo-3D proliferation assay; type: functional, cell-based; conditions: time 7.0 day
[8] = target: T1, von Hippel-Lindau disease tumor suppressor/Son of sevenless homolog 1 (Homo sapiens); assay: In vivo PROTAC activity at VHL/SOS1 in human SW620 cells harboring KRAS G12V mutant xenografted BALB/c nude mouse assessed as decrease in phosphorylated ERK expression in tumor at 10 to 20 mg/kg, ip administered once daily for 2 weeks by immunohistochemistry analysis; type: functional, organism-based; conditions: SW-620, dose 10-20 mg/kg
[9] = target: von Hippel-Lindau disease tumor suppressor/Son of sevenless homolog 1 (Homo sapiens, UniProt P40337+Q07889, G12C); assay: PROTAC activity at VHL/SOS1 in human MIA PaCa-2 cells harboring KRAS G12C mutant assessed as induction of SOS1 degradation incubated for 24 hrs by Immunoblot analysis; type: cell-based; conditions: pooled result: one value given for 16 cell lines, strains, targets or settings
Chain of von Hippel-Lindau disease tumor suppressor/Son of sevenless homolog 1 (Homo sapiens, UniProt P40337+Q07889, G12C) (P40337 whole entry, looked up, stated change not applied): as the sequence (P40337 whole entry, looked up) above
Chain of von Hippel-Lindau disease tumor suppressor/Son of sevenless homolog 1 (Homo sapiens, UniProt P40337+Q07889, G12C) (Q07889 whole entry, looked up, stated change not applied): as the sequence (Q07889 whole entry, looked up) above

[10] = target: von Hippel-Lindau disease tumor suppressor/Son of sevenless homolog 1 (Homo sapiens, UniProt P40337+Q07889, G12R); assay: PROTAC activity at VHL/SOS1 in human CAL-62 cells harboring KRAS G12R mutant assessed as induction of SOS1 degradation incubated for 24 hrs by Immunoblot analysis; type: cell-based
Chain of von Hippel-Lindau disease tumor suppressor/Son of sevenless homolog 1 (Homo sapiens, UniProt P40337+Q07889, G12R) (P40337 whole entry, looked up, stated change not applied): as the sequence (P40337 whole entry, looked up) above
Chain of von Hippel-Lindau disease tumor suppressor/Son of sevenless homolog 1 (Homo sapiens, UniProt P40337+Q07889, G12R) (Q07889 whole entry, looked up, stated change not applied): as the sequence (Q07889 whole entry, looked up) above

With `COc1cc2nc(C)nc(N[C@H](C)c3cc(N)cc(C(F)(F)F)c3)c2cc1C1CCN(C(=O)CCCCCC(=O)N[C@H](C(=O)N2C[C@H](O)C[C@H]2C(=O)N[C@@H](C)c2ccc(-c3scnc3C)cc2)C(C)(C)C)CC1` the Activity [1] was 98.2%, the IC50 (MIA PaCa-2) was 10.1 nM and the inhibition in vivo at 10 mg/kg (ASPC1) was 38.8%. The Emax [2] was over 95%, the Emax [3] was over 95% and the EC50 [4] was 81.7 nM. For the same molecule, the Activity [5] was “Active”, the Activity [6] was “inactive” and the Emax [7] was over 95%. The inhibition (CAL-62) was “inactive”, the Activity [8] was “Active” and the EC50 [9] was 8.41 nM. For the same molecule, the EC50 [10] was 15 nM.
